The source made the active and inactive calls. No cut-off for these calls is given here.
Tests used:
[1] = molecular target: T1, Adenosine receptor A1 (Homo sapiens) (UniProt P30542); assay: Displacement of [3H]DPCPX from human adenosine A1 receptor expressed in CHO cells at 10 uM after 120 mins by scintillation counting; assay type: cell-based
T1 sequence (whole entry): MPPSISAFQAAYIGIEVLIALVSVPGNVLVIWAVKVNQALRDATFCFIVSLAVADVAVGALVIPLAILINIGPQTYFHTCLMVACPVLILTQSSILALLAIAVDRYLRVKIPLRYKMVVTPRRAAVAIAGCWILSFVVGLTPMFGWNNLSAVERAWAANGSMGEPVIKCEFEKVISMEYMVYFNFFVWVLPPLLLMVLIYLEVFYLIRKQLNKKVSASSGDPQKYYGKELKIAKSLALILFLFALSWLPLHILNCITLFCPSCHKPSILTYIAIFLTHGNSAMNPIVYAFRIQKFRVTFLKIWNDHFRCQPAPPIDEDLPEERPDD

[2] = molecular target: T1, Adenosine receptor A1 (Homo sapiens); assay: Increase of [3H]-NECA affinity to human adenosine A1 receptor expressed in CHO cells at 1 uM after 45 mins by scintillation spectrometry analysis relative to control; assay type: cell-based
[3] = tested on: Mus musculus; assay: Antinociceptive effect in CD1 mouse assessed as inhibition of formalin-induced pain behavior in paw at 0.3 mg/kg, ip administered 15 mins before formalin challenge measured up to 45 mins relative to control; assay type: functional
[4] = molecular target: T1, Adenosine receptor A1 (Homo sapiens); assay: Positive allosteric enhancement of human cloned adenosine A1 receptor expressed in CHO cells assessed as inhibition of forskolin-induced cAMP accumulation at 100 nM using [3H]-cAMP by scintillation counting relative to control in presence of 1 pM of CCPA; assay type: functional, cell-based
[5] = molecular target: T1, Adenosine receptor A1 (Homo sapiens); assay: Positive allosteric enhancement of human cloned adenosine A1 receptor expressed in CHO cells assessed as inhibition of forskolin-induced cAMP accumulation at 10 uM using [3H]-cAMP by scintillation counting relative to control; assay type: functional, cell-based
[6] = molecular target: T2, Adenosine receptor A3 (Homo sapiens) (UniProt P0DMS8); assay: Displacement of [3H]-MRE-3008-F20 from human adenosine A3 receptor expressed in CHO cells at 10 uM after 120 mins by scintillation counting; assay type: cell-based
T2 sequence (whole entry): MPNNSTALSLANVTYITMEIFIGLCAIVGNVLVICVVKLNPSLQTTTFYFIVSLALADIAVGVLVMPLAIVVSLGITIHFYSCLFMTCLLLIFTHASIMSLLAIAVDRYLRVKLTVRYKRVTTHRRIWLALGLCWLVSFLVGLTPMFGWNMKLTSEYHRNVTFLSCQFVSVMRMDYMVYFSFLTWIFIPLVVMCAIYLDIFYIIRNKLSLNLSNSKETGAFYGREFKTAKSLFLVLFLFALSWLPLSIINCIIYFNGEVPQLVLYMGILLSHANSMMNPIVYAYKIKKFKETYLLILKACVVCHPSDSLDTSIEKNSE

[7] = Displacement of [3H]-ZM241385 from human adenosine A2 receptor expressed in CHO cells at 10 uM after 120 mins by scintillation counting; assay type: cell-based
[8] = molecular target: T1, Adenosine receptor A1 (Homo sapiens); assay: Binding affinity to human adenosine A1 receptor expressed in CHO cells assessed as fold Ki shift of CCPA at 10 uM after 90 mins by [3H]-CCPA displacement assay relative to control; assay type: cell-based
[9] = molecular target: T1, Adenosine receptor A1 (Homo sapiens); assay: Effect on dissociation binding rate constant of [3H]-NECA to human adenosine A1 receptor expressed in CHO cells at 1 uM after 45 mins by scintillation spectrometry analysis relative to control; assay type: cell-based
[10] = molecular target: T1, Adenosine receptor A1 (Homo sapiens); assay: Effect on association binding rate constant of [3H]-NECA to human adenosine A1 receptor expressed in CHO cells at 1 uM after 45 mins by scintillation spectrometry analysis; assay type: cell-based
[11] = molecular target: T1, Adenosine receptor A1 (Homo sapiens); assay: Ratio of PD81723 to compound for positive allosteric enhancement of human cloned adenosine A1 receptor expressed in CHO cells assessed as inhibition of forskolin-induced cAMP accumulation at 10 uM using [3H]-cAMP by scintillation counting; assay type: functional, cell-based
[12] = tested on: Mus musculus; assay: Antinociceptive effect in CD1 mouse assessed as inhibition of formalin-induced pain behavior in paw at 3 mg/kg, ip administered 15 mins before formalin challenge measured up to 45 mins relative to control; assay type: functional
[13] = molecular target: T1, Adenosine receptor A1 (Homo sapiens); assay: Binding affinity to human adenosine A1 receptor expressed in CHO cells assessed as fold Bmax shift of [3H]-CCPA at 10 uM after 90 mins by [3H]-CCPA binding assay relative to control; assay type: cell-based

SMILES	inhibition [1] [%]	fold change (FC) [2]	inhibition [4] [%]	inhibition [5] [%]	inhibition [6] [%]	fold change (FC) [8]	fold change (FC) [9]	Activity [10]	Ratio [11]	fold change (FC) [13]	Activity [2]	Activity [9]	inhibition in vivo at 0.3 mg/kg [3] [%]	inhibition [7] [%]	inhibition in vivo at 3 mg/kg [12] [%]
Nc1sc(-c2ccc(Cl)cc2)c(Cc2ccc(Cl)cc2)c1C(=O)c1ccc(Cl)cc1	< 10	2.3	84	81	< 10	11.7	2.5	inactive	3	11			49	< 10	82
COc1ccc(Cc2c(-c3ccccc3)sc(N)c2C(=O)c2ccc(Cl)cc2)cc1C	< 10		66	66	< 10	6.1			3	8.1				< 10	
Cc1sc(N)c(C(=O)c2cccc(C(F)(F)F)c2)c1C	< 10		21		< 10	1.4		inactive		1.3	inactive	inactive		< 10	
COc1ccc(Cc2c(-c3ccccc3)sc(N)c2C(=O)c2ccc(Cl)cc2)c(OC)c1	< 10		53	52	< 10	4.2			3	5.6				< 10	
COc1ccc(-c2sc(N)c(C(=O)c3ccc(Cl)cc3)c2Cc2ccc(Cl)cc2)cc1	< 10		48	49	< 10	3.9			3	5				< 10	
COc1ccc(-c2sc(N)c(C(=O)c3ccc(Cl)cc3)c2Cc2ccc(SC)cc2)cc1	< 10		62	62	< 10	6.1			3	6.5				< 10	
COc1cccc(Cc2c(-c3ccccc3)sc(N)c2C(=O)c2ccc(Cl)cc2)c1	< 10		63	66	< 10	6.9			3	7.3				< 10	

More lines, main results first:

inhibition [1] [%]	fold change (FC) [2]	inhibition [4] [%]	inhibition [5] [%]	inhibition [6] [%]	fold change (FC) [8]	fold change (FC) [9]	Activity [10]	Ratio [11]	fold change (FC) [13]	Activity [2]	Activity [9]	SMILES	inhibition in vivo at 0.3 mg/kg [3] [%]	inhibition [7] [%]	inhibition in vivo at 3 mg/kg [12] [%]
< 10		41	45	< 10	3.7			3	4.8			Nc1sc(-c2ccc(F)cc2)c(Cc2ccc(F)cc2)c1C(=O)c1ccc(Cl)cc1		< 10	
< 10		57	58	< 10	5.4			3	6.3			Nc1sc(-c2ccccc2)c(Cc2ccc(F)cc2)c1C(=O)c1ccc(Cl)cc1		< 10	
< 10		55	53	< 10	4.1			3	5.3			Nc1sc(-c2ccc(F)cc2)c(Cc2ccc(Cl)cc2)c1C(=O)c1ccc(Cl)cc1		< 10	
< 10		55	52	< 10	5.2			3	5.3			CSc1ccc(Cc2c(-c3ccc(F)cc3)sc(N)c2C(=O)c2ccc(Cl)cc2)cc1		< 10	
< 10		66	69	< 10	8.9			3	9.1			Nc1sc(-c2ccccc2)c(Cc2ccc(C(F)(F)F)cc2)c1C(=O)c1ccc(Cl)cc1		< 10	
< 10		59	58	< 10	5.4			3	6.3			COc1ccc(Cc2c(-c3ccc(F)cc3)sc(N)c2C(=O)c2ccc(Cl)cc2)cc1		< 10	
< 10		49	50	< 10	3.9			3	4.9			Nc1sc(-c2ccc(F)cc2)c(Cc2ccccc2)c1C(=O)c1ccc(Cl)cc1		< 10	
< 10		64	61	< 10	5.6			3	6.4			Nc1sc(-c2ccccc2)c(Cc2ccc(Cl)cc2)c1C(=O)c1ccc(Cl)cc1		< 10	

From ChEMBL document CHEMBL3612058, “Synthesis and biological evaluation of a new series of 2-amino-3-aroyl thiophene derivatives as agonist allosteric modulators of the A1 adenosine receptor. A position-dependent effect study” (Eur J Med Chem, 2015)
